Patent US5519057A, “Ibuprofen-containing medicament” (priority 1986, dated 1996)

Experiments:
[1] = metabolites excreted in the urine; cited from earlier work
[2] = tested on: afferent nerves of the feet of female Rhesus monkeys; assay: Analgesia test: threshold voltage for stimulus response on electrical stimulation of the feet of female Rhesus monkeys; type: in vivo, Rhesus monkeys (macaca mulatta); conditions: for Median percentage change in the threshold voltage: ibuprofen forms 50 mg/kg, acetylsalicylic acid 100 mg/kg; for analgetic effect (in words) / change in the threshold voltage (in words) / increase of the threshold voltage / time to achieve the increase of threshold voltage: 50 mg/kg ibuprofen form
Experimental: In this test the afferent nerves of the feet of female Rhesus monkeys were electrically stimulated. For the test four adult female Rhesus monkeys (macaca mulatta) were used.
The monkeys were trained in such a way that they sat in chairs wearing an aluminium foil shoe during the test.
On the days when the test was carried out the monkeys were sat in these stools. One foot of each monkey was smeared with electrode gel and the aluminium shoe was fitted over it.
A Grass-stimulator (S 88) was connected to the monkeys via a multiple-way switch (the positive lead was connected to the aluminium shoe, the negative lead to the chair). An electrical stimulation, each time of 2 seconds duration with a frequency of 60 Hz was applied (the magnitude of stimulation was altered by adjusting the voltage supplied to the stimulator; the corresponding current was measured by means of an ammeter connected in series).
The stimulus required to achieve a stimulus threshold was determined. For this purpose the voltage was raised stepwise. The threshold voltage was taken as the lowest voltage at which bending of the toes or twisting of the foot occurred.
Before application of the medicament the animals were allowed to acclimatize for at least one hour. During this period the threshold voltage was determined at 10 minute intervals until steady readings were obtained.
Following the acclimatization period the carrier material or the active ingredient were orally administered. The threshold voltage required to effect a stimulus response in the foot of each monkey was determined at 30 minute intervals for 3 hours and then after 4 and 5 hours after administration of the active ingredient.
The observer and the stimulation apparatus were concealed behind a one-way mirror.
Between the individual tests there was an interval of at least one week.
The active ingredients 1 to 4 were prepared for oral administration by suspending them in 1.0% w/v Tragacanth. The medicaments were prepared directly before use and administered in a dose of 4 ml/kg.

[3] = human, oral
[4] = tested on: humans; assay: Analgetic activity in humans; type: in vivo; conditions: no data given
[5] = tested on: prostaglandin synthesis; conditions: animals with inflammation; cited from earlier work
[6] = tested on: humans; conditions: cited from earlier work
[7] = 0,5 h after oral administration
[8] = 1,0 h after oral administration, *P < 0,05 vs carrier (Mann-Whitney U) over (+)-S-Ibuprofen and acetylsalicylic acid
[9] = 1,5 h after oral administration, *P < 0,05 vs carrier (Mann-Whitney U) over (+)-S-Ibuprofen
[10] = 2,0 h after oral administration
[11] = 2,5 h after oral administration
[12] = 3,0 h after oral administration
[13] = 4,0 h after oral administration
[14] = 5,0 h after oral administration
[15] = oral, 100 mg/kg acetylsalicylic acid

Row | Structure (SMILES) | Median percentage change in the threshold voltage [2, 7] | Median percentage change in the threshold voltage [2, 8] | Median percentage change in the threshold voltage [2, 9] | Median percentage change in the threshold voltage [2, 10] | Median percentage change in the threshold voltage [2, 11] | Median percentage change in the threshold voltage [2, 12] | Median percentage change in the threshold voltage [2, 13] | Median percentage change in the threshold voltage [2, 14] | analgetic effect (in words) ([2]; oral) | change in the threshold voltage (in words) ([2]; oral) | increase of the threshold voltage ([2]; oral) | time to achieve the increase of threshold voltage ([2]; oral) | other results
1 | CC(C)Cc1ccc([C@@H](C)C(=O)O)cc1 [(R)-(-)-ibuprofen] | -5,7% | +4,0% | +4,5% | +0,5% | -4,7% | -7,0% | -2,3% | -3,4% | inactive | no significant change in the threshold voltage |  |  | conversion to the active (S)-(+)-enantiomer in vivo [1]: converted to the active (S)-(+)-enantiomer in vivo; late plasma levels as % of the maximum level ([3]; after the first 4 to 6 hours): less than 10%; plasma levels relative to those after administration of the (S)-(+)-form ([3]; only after the first 4 to 6 hours): equally high or higher levels
2 | CC(=O)Oc1ccccc1C(=O)O [Acetylsalicylic acid] | +35,8% | +56,6% | +41,4% | +80,4% | +74,6% | +72,8% | +66,1% | +59,8% |  |  |  |  | increase of the threshold voltage required for a stimulus response [2, 15]: ~80%; time to achieve the level of analgesia [2, 15]: ≤ 2 h; threshold voltage increase remaining throughout the duration of the test ([2]; oral, 100 mg/kg acetylsalicylic acid, after level achieved, up to 5 h): above 60%
3 | CC(C)Cc1ccc([C@H](C)C(=O)O)cc1 [(S)-(+)-ibuprofen] | +9,5% | +33,5% | +51,2% | +53,9% | +45,5% | +42,3% | +33,7% | +38,2% | notable analgesic effect which was maintained for several hours | the threshold voltage remained elevated during the rest of the test period | ~50% | 90 min | amount of (S)-(+)-ibuprofen required relative to racemic ibuprofen to give a given analgetic activity ([2]; analgesia tests on monkeys): less than half as much; reduced dose requirement versus racemate shown in humans [4]: could also be shown in humans
4 | CC(C)Cc1ccc(C(C)C(=O)O)cc1 (racemic) [(±)-ibuprofen, 2-(4-Isobutylphenyl)-propionic acid] | +6,4% | +8,4% | +15,7% | +15,7% | +8,5% | +18,1% | +9,7% | +17,0% |  | the level remained during the rest of the test period | approximately 15% | ≤ 90 min | analgetic effect (in words) ([2]; oral, listed as ibuprofen racemate, 50 mg/kg): analgetic activity was assumed; analgetic effect (in words) ([2]; oral, listed as racemate, 50 mg/kg): weak but long-lasting analgetic effect; difference between the median change between ibuprofen racemate and carrier ([2]; oral, 50 mg/kg, every time after 90 minutes with the exception of 150 minutes): more than 20%; inhibition of prostaglandin synthesis [5]: effective in inhibiting prostaglandin synthesis; known period of action ([6]; human): ca. 6 hours; side effects ([6]; in vivo): usual unwanted side effects of NSAR; therapeutic effect in humans ([6]; therapy of humans): reduces pain, swelling and fever caused by inflammation
